“And” between values parts separate entries of the source, which are not always exact repeats. Equal entries are not always repeated. Structures can show the parent of a compound that is named as a salt.

Drawing on the supplement of paper PMC10290057, this text covers efficacy for 65 molecules.
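Further: Luminescence-based viability readout, five doses per compound, normalized against on-plate DMSO and empty-well controls, followed by dose-response curve fitting for every drug.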

This assay concerns HCT116. Put plainly: efficacy (fitted maximal change in viability relative to DMSO control); higher = less cytotoxic (negative = loss of viability). The settings on record: 48 h.
For the molecule `C=C1/C(=C\C=C2/CCC[C@]3(C)[C@@H]([C@H](C)CCCC(C)(C)O)CC[C@@H]23)C[C@@H](O)C[C@@H]1O` [Calcitriol], the efficacy is -65% and -62.8%.

As for `N/C1=N/C(=O)C/2=C(NC[C@@H](CNC3=CC=C(C=C3)C(=O)N[C@@H](CCC([O-])=O)C([O-])=O)N2C=O)\N1` [Calcium folinate], the efficacy is -9.49%.

As to `CCCC[C@@H](C=O)NC(=O)[C@H](CC(C)C)NC(=O)OCc1ccccc1` [Calpeptin], the efficacy is -29.4%. For `CC[C@@]1(O)C(=O)OC\C2=C1\C=C\3N(CC4=C3N=C5C=CC=CC5=C4)C2=O` [Camptothecin] the value was -65.5%; for `CNC(=O)c1ccc(-c2cnc3ncc(Cc4ccc5ncccc5c4)n3n2)cc1F` [Capmatinib], -28.8%. For `COc1cc(CNC(=O)CCCC/C=C/C(C)C)ccc1O` [Capsaicin] the value was -16.7%. For `COc1ccc(Nc2nccc(NCCO)n2)cc1` [Cardiogenol] the value was -11.7%; for `O=NN(CCCl)C(=O)NCCCl` [Carmustine], -15.1%. Regarding `CCN(CC)CCN1C(=O)\C(=N/C2=CC=CC=C12)CC3=CC=C(OC)C=C3` [Caroverine], the efficacy is -15.9%.

Regarding `CC(C)C[C@H](NC(=O)[C@H](Cc1ccccc1)NC(=O)OCc1ccccc1)C(=O)C=O` [Cathepsin S Inhibitor], the efficacy was -64.5%. For `CCN1CCN(C(=O)N[C@@H](C(=O)N[C@H]2[C@H]3SC\C(=C(/N3C2=O)C(O)=O)CSC4=NN=N[N]4C)C5=CC=C(O)C=C5)C(=O)C1=O` [Cefoperazone (sodium salt)] the value was -15.8%; for `Cc1nnc(C(C)C)n1C1CC2CCC(C1)N2CCC(NC(=O)C1CCC(F)(F)CC1)c1ccccc1` (stereo not given) [Celsentri (Maraviroc)], 17%; for `CC[S+](=O)([O-])N1CCN(c2ccc(Nc3ncc(C(N)=O)c(NC4CC4)n3)cc2)CC1` [Cerdulatinib], -88.9%. For `COc1ccc2c(c[n+](C)c3c4cc5c(cc4ccc23)OCO5)c1OC` [Chelerythrine chloride] the value was -83.2%; for `C[C@H](CCC(=O)O)[C@H]1CC[C@H]2[C@@H]3[C@H](O)C[C@@H]4C[C@H](O)CC[C@]4(C)[C@H]3CC[C@]12C` [Chenodeoxycholic acid], -16%; for `CCN(CC)CCCC(C)Nc1ccnc2cc(Cl)ccc12` (stereo not given) [Chloroquine], -24.3%.

As for `N[S+]([O-])(=O)C1=C(Cl)C=C2\N=C/N[S+]([O-])(=O)C2=C1` [Chlorothiazide], the efficacy is -4.38%. For `Cc1cc(O)c2c(c1)C(=O)c1cccc(O)c1C2=O` [Chrysophanol] the value was -8.65%; for `NC/1=N/C(=O)N(C[C@@H](CO)OC[P](O)(O)=O)/C=C1` [Cidofovir], 7.03%.

Take `CC(C)[C@H]1C(=O)N[C@@H](CCCN=C(N)N)C(=O)NCC(=O)N[C@@H](CC(=O)O)C(=O)N[C@H](Cc2ccccc2)C(=O)N1C` [Cilengitide]: the efficacy is -11%.

In the case of `O=C1CCc2cc(OCCCCc3nnnn3C3CCCCC3)ccc2N1` [Cilostazol], the efficacy is -26.7%. For `O=C(O)CCCCN(CCc1ccccc1OCc1ccc(CCc2ccccc2)cc1)Cc1ccc(C(=O)O)cc1` [Cinaciguat] the value was -11.7%; for `C=C[C@H]1CN2CCC1C[C@@H]2[C@@H](O)c1ccnc2ccccc12` (stereo not given in full) [Cinchonine dihydrochloride], -36.1%. For `CC(C)(Oc1ccc(C2CC2(Cl)Cl)cc1)C(=O)O` (stereo not given) [Ciprofibrate] the value was -6.71%. For `[NH2][Pt]([NH2])([Cl])[Cl]` [Cisplatin] the value was -25%; for `CCC[C@@H]1C[C@@H](C(=O)N[C@@H]([C@H]2O[C@H](SC)[C@H](O)[C@@H](O)[C@H]2O)[C@H](C)Cl)N(C)C1` [Clindamycin HCl], -14.1%; for `CCCCCCCCCCCCCCCC(=O)O[C@@H]1[C@@H](O)[C@@H](O)[C@@H]([C@H](NC(=O)[C@@H]2C[C@@H](CCC)CN2C)[C@H](C)Cl)O[C@@H]1SC.Cl` [Clindamycin palmitate], -24.9%. For the molecule `CCC(=O)O[C@@]1([C@@H](C)C[C@H]2[C@@H]3CCC/4=C/C(=O)/C=C\[C@]4(C)[C@@]3(F)[C@@H](O)C[C@]12C)C(=O)CCl` [Clobetasol propionate], the efficacy is -57.1%.

In the case of `Nc1nc(Cl)nc2c1ncn2[C@@H]1O[C@H](CO)[C@@H](O)[C@@H]1F` [Clofarabine], the efficacy was -51.1%.

Take `CN(C)CCCN1c2ccccc2CCc2ccc(Cl)cc21` [Clomipramine hydrochloride]: the efficacy was -84.3%. For `COC(=O)[C@H](c1ccccc1Cl)N1CCc2sccc2C1` [Clopidogrel bisulfate] the value was -22.3%; for `Nc1cc(c(cc1S(=O)(N)=O)S(N)(=O)=O)C(/Cl)=C(/Cl)Cl` [Clorsulon], -7.71%. In the case of `COC1=C(OC)C(=O)C(C/C=C(\C)CC/C=C(\C)CC/C=C(\C)CC/C=C(/C)CC/C=C(\C)CC/C=C(\C)CC/C=C(\C)CC/C=C(\C)CC/C=C(\C)CCC=C(C)C)=C(C)C1=O` [Coenzyme Q10], the efficacy was 7.5%. As for `CN(Cc1ccccc1)C(=O)c1ccc([S+](=O)([O-])Nc2ccccc2)cc1` [Compound 2], the efficacy was -20.4%. For `CN[C@@H](C)C(=O)N[C@@H]1C(=O)N(Cc2c(C)ccc3ccccc23)c2ccc(C#N)cc2N(C(C)=O)[C@H]1C` [Compound 36] the value was -26%; for `Nc1ncnc2c1ncn2[C@@H]1O[C@H](CO)C[C@H]1O` [Cordycepin], -20.6%. Take `CC(=O)OCC(=O)[C@@]1(O)CC[C@H]2[C@@H]3CCC/4=C/C(=O)CC[C@]4(C)[C@H]3C(=O)C[C@]12C` [Cortisone acetate]: the efficacy was 22.5%. For `C[C@@H]1C[C@H]2[C@@H]3\C=C(C)/C4=C/C5=C(C[C@]4(C)[C@H]3[C@@H](O)C[C@]2(C)[C@@]1(O)C(=O)COC(C)=O)C=N[N]5C6=CC=CC=C6` [Cortivazol] the value was -25.2%; for `C/C=C/C(=O)N(CC)c1ccccc1C` [Crotamiton], 6.9%. `C[C@H]1COC/2=C1/C(=O)C(=O)C3=C4CCCC(C)(C)C4=CC=C23` [Cryptotanshinone]: the efficacy was -30%.

With `C=C1C[C@@]2(O)O[C@@]3(C[C@H]2C(C)C)[C@@H](C)CC[C@@H]13` [Curcumol], the efficacy was -14.1%. For `COc1ccc(CCN2CCN(CCCc3ccccc3)CC2)cc1OC` [Cutamesine hydrochloride] the value was -28.5%. For `CN[C@@H](C)[C@H]1[C@H](O)C[C@@]2(C)[C@@H]3CC[C@H]4C(C)(C)[C@@H](NC)CC[C@@]45C[C@@]35CC[C@]12C` [Cyclovirobuxin D] the value was -29.5%; for `CC(C)C(N)C(=O)OCC(CO)OC[N]1C=NC2=C1N\C(=N/C2=O)N` (stereo not given) [Cymeval], -19.5%. For `CC(=O)O[C@@]1(CC[C@H]2[C@@H]3\C=C(Cl)/C4=C/C(=O)[C@@H]5C[C@@H]5[C@]4(C)[C@H]3CC[C@]12C)C(C)=O` [Cyproterone acetate] the value was -60.6%; for `NC\1=N\C(=O)N(\C=C1)[C@@H]2O[C@H](CO)[C@@H](O)[C@H]2O` [Cytidine], -11.1%; for `O=C1\C=C/C=C2/[C@H]3CNC[C@H](C3)CN12` [Cytisine], -21.9%. For `O=C(O)c1ccc(CCCc2ccc(OCCc3ccc(F)cc3)cc2)o1` [D-942], the efficacy was -66.5%. For `NC(=O)c1ccc(-c2nc(-c3ccc4c(c3)OCCO4)c(-c3ccccn3)[nH]2)cc1` [D-4476] the value was -84.9%; for `N[C@@H]1CONC1=O` [D-Cycloserine], -29.8%; for `Cn1c(CNc2ccc(C(=N)N)cc2)nc2cc(C(=O)N(CCC(=O)O)c3ccccn3)ccc21` [Dabigatran], -8.84%.

For `CC(C)(C)c1nc(-c2cccc(N[S+](=O)([O-])c3c(F)cccc3F)c2F)c(-c2ccnc(N)n2)s1` [Dabrafenib], the efficacy is -29.3%. Take `COC(=O)N[C@H](C(=O)N1CCC[C@H]1c1ncc(-c2ccc(-c3ccc(-c4cnc([C@@H]5CCCN5C(=O)[C@@H](NC(=O)OC)C(C)C)[nH]4)cc3)cc2)[nH]1)C(C)C` [Daclatasvir dihydrochloride]: the efficacy was -112%. For `OC1=CC=C(C=C1)\C2=C\OC3=C(C=CC(=C3)O)C2=O` [Daidzein] the value was 12.4%; for `OC[C@H]1O[C@@H](OC2=CC3=C(C=C2)C(=O)\C(=C/O3)C4=CC=C(O)C=C4)[C@H](O)[C@@H](O)[C@@H]1O` [Daidzin], -23.3%; for `CCC(CC)CC1(C(=O)Nc2ccccc2SC(=O)C(C)C)CCCCC1` [Dalcetrapib], -17.1%.

Turning to `CN(C)NC(=O)CCC(=O)O` [Daminozide], the efficacy was -8.97%. For `O=C(O)CNC(=O)C1C(=O)N(C2CCCCC2)C(=O)N(C2CCCCC2)C1=O` [Daprodustat] the value was -6.36%; for `COc1cccc2c1C(=O)c1c(O)c3c(c(O)c1C2=O)C[C@@](O)(C(C)=O)C[C@@H]3O[C@H]1C[C@H](N)[C@H](O)[C@H](C)O1` [Daunorubicin], -77.4%; for `CC(=O)OCC(=O)[C@@]12\N=C(C)/O[C@@H]1C[C@H]3[C@@H]4CCC/5=C/C(=O)/C=C\[C@]5(C)[C@H]4[C@@H](O)C[C@]23C` [Deflazacort], 9%. As for `C[C@]12CC[C@H]3[C@@H](C\C=C/4C[C@@H](O)CC[C@]34C)[C@@H]1CCC2=O` [Dehydroepiandrosterone], the efficacy was -17%. For `C[C@@H](CN1CC(=O)NC(=O)C1)N1CC(=O)NC(=O)C1` [Dexrazoxane hydrochloride] the value was -22.3%; for `O=C([O-])Cc1ccccc1Nc1c(Cl)cccc1Cl` [Diclofenac sodium], -6.7%. As for `N[S+](=O)([O-])c1cc(Cl)c(Cl)c([S+](N)(=O)[O-])c1` [Diclofenamide], the efficacy is -19.2%. For `C/C=C(/C(=C/C)c1ccc(O)cc1)c1ccc(O)cc1` [Dienestrol] the value was -63.7%.
